The values that follow come from patent US12599582B2, “Pyrrole compounds” (ALIGOS THERAPEUTICS, INC., priority 2019, dated 2026).

The structures appear in SMILES notation.

This assay relates to HBV. Nature of the assay: HBV-DNA Antiviral Assay Using HepG2.2.15 Cells (extracellular HBV DNA by qPCR). Format: cell-based, hepatitis B virus (HBV). To be noted: Hepatitis B virus; HBV DNA inhibition, HepG2.2.15 cells, extracellular HBV DNA by qPCR; read-out: EC50. In a few lines:
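HepG2.2.15 cells were treated on day 1 with 8 concentrations (4-fold dilutions, duplicate; 0.5% DMSO), with compound-containing medium refreshed on day 4, at 37 °C. On day 7, supernatant HBV DNA was measured by qPCR against a plasmid standard curve, with inhibition normalised between DMSO and ETV controls. EC50/EC90 and CC50 (CellTiter-Glo ATP) came from variable-slope fits.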

As a reminder, the EC50 is the concentration that produces a half-maximal response.

For the compound `Cc1c(C(=O)C(=O)NC(C)(C)c2cnn(C)c2)c(C)n(C)c1C(=O)Nc1ccc(F)c(C#N)c1` [Compound 70, N-(3-cyano-4-fluoro-phenyl)-1,3,5-trimethyl-4-[2-[[1-methyl-1-(1-methylpyrazol-4-yl)ethyl]amino]-2-oxo-acetyl]pyrrole-2-carboxamide], the half-maximal effective concentration (EC50) fell in the range of 1 to 10 nM.

`C#C[C@](CO)(NC(=O)C(=O)c1c(C)c(C(=O)Nc2ccc(F)c(C#N)c2)n(C)c1C)C(F)(F)F` [Compound 71a, N-(3-cyano-4-fluoro-phenyl)-1,3,5-trimethyl-4-[2-oxo-2-[[(1R)-1-(hydroxymethyl)-1-(trifluoromethyl)prop-2-ynyl]amino]acetyl]pyrrole-2-carboxamide]: the EC50 was in the range of 1 to 10 nM.

Take `C#C[C@@](CO)(NC(=O)C(=O)c1c(C)c(C(=O)Nc2ccc(F)c(C#N)c2)n(C)c1C)C(F)(F)F` [Compound 71b, N-(3-cyano-4-fluoro-phenyl)-1,3,5-trimethyl-4-[2-oxo-2-[[(1S)-1-(hydroxymethyl)-1-(trifluoromethyl)prop-2-ynyl]amino]acetyl]pyrrole-2-carboxamide]: the EC50 lay within 1 to 10 nM.

Take `C=C[C@](C)(CO)NC(=O)C(=O)c1c(C)c(C(=O)Nc2ccc(F)c(C#N)c2)n(C)c1C` [Compound 72a, N-(3-cyano-4-fluoro-phenyl)-1,3,5-trimethyl-4-[2-oxo-2-[[(1R)-1-(hydroxymethyl)-1-methyl-allyl]amino]acetyl]pyrrole-2-carboxamide]: the EC50 was 1 to 10 nM.

Take `C=C[C@@](C)(CO)NC(=O)C(=O)c1c(C)c(C(=O)Nc2ccc(F)c(C#N)c2)n(C)c1C` [Compound 72b, N-(3-cyano-4-fluoro-phenyl)-1,3,5-trimethyl-4-[2-oxo-2-[[(1S)-1-(hydroxymethyl)-1-methyl-allyl]amino]acetyl]pyrrole-2-carboxamide]: the EC50 is 1 to 10 nM.

Consider `C=C[C@](CO)(NC(=O)C(=O)c1c(C)c(C(=O)Nc2ccc(F)c(C#N)c2)n(C)c1C)C(F)(F)F` [Compound 74a, N-(3-cyano-4-fluoro-phenyl)-1,3,5-trimethyl-4-[2-oxo-2-[[(1R)-1-(hydroxymethyl)-1-(trifluoromethyl)allyl]amino]acetyl]pyrrole-2-carboxamide], for which the EC50 lay in the range of 1 to 10 nM.

Take `C#C[C@@](CO)(NC(=O)C(=O)c1c(C)c(C(=O)Nc2ccc(F)c(C(F)(F)F)c2)n(C)c1C)C(F)(F)F` [Compound 75b, N-[4-fluoro-3-(trifluoromethyl)phenyl]-1,3,5-trimethyl-4-[2-oxo-2-[[(1S)-1-(hydroxymethyl)-1-(trifluoromethyl)prop-2-ynyl]amino]acetyl]pyrrole-2-carboxamide]: the EC50 lay in the range of 10 to 100 nM.

Take `Cc1c(C(=O)C(=O)NC2(C#CCO)COC2)c(C)n(C)c1C(=O)Nc1ccc(F)c(C#N)c1` [Compound 76, N-(3-cyano-4-fluoro-phenyl)-4-[2-[[3-(3-hydroxyprop-1-ynyl)oxetan-3-yl]amino]-2-oxo-acetyl]-1,3,5-trimethyl-pyrrole-2-carboxamide]: the EC50 was 10 to 100 nM.

Take `C#C[C@@](C)(NC(=O)C(=O)c1c(C)c(C(=O)Nc2ccc(F)c(C#N)c2)n(C)c1C)C(F)(F)F` [Compound 79a, N-(3-cyano-4-fluoro-phenyl)-1,3,5-trimethyl-4-[2-oxo-2-[[(1R)-1-methyl-1-(trifluoromethyl)prop-2-ynyl]amino]acetyl]pyrrole-2-carboxamide]: the EC50 lay within 1 to 10 nM.

As for `C#C[C@](C)(NC(=O)C(=O)c1c(C)c(C(=O)Nc2ccc(F)c(C#N)c2)n(C)c1C)C(F)(F)F` [Compound 79b, N-(3-cyano-4-fluoro-phenyl)-1,3,5-trimethyl-4-[2-oxo-2-[[(1S)-1-methyl-1-(trifluoromethyl)prop-2-ynyl]amino]acetyl]pyrrole-2-carboxamide], the EC50 fell in the range of 1 to 10 nM.

For `C=C[C@](CO)(NC(=O)C(=O)c1c(C)c(C(=O)Nc2ccc(F)c(C(F)(F)F)c2)n(C)c1C)C(F)(F)F` [Compound 80a, N-[4-fluoro-3-(trifluoromethyl)phenyl]-1,3,5-trimethyl-4-[2-oxo-2-[[(1R)-1-(hydroxymethyl)-1-(trifluoromethyl)allyl]amino]acetyl]pyrrole-2-carboxamide], the EC50 lay in the range of 1 to 10 nM.

Take `C=C[C@@](CO)(NC(=O)C(=O)c1c(C)c(C(=O)Nc2ccc(F)c(C(F)(F)F)c2)n(C)c1C)C(F)(F)F` [Compound 80b, N-[4-fluoro-3-(trifluoromethyl)phenyl]-1,3,5-trimethyl-4-[2-oxo-2-[[(1S)-1-(hydroxymethyl)-1-(trifluoromethyl)allyl]amino]acetyl]pyrrole-2-carboxamide]: the EC50 was 1 to 10 nM.

Turning to `C#CC1(NC(=O)C(=O)c2c(C)c(C(=O)Nc3ccc(F)c(C(F)F)c3)n(C)c2Cl)CC(F)(F)C1` [Compound 81, 5-chloro-N-[3-(difluoromethyl)-4-fluoro-phenyl]-4-[2-[(1-ethynyl-3,3-difluoro-cyclobutyl)amino]-2-oxo-acetyl]-1,3-dimethyl-pyrrole-2-carboxamide], the EC50 fell in the range of 1 to 10 nM.

Consider `C#CC1(NC(=O)C(=O)c2c(C)c(C(=O)Nc3ccc(F)c(C(F)F)c3)n(C)c2C)CC(F)(F)C1` [Compound 82, N-[3-(difluoromethyl)-4-fluoro-phenyl]-4-[2-[(1-ethynyl-3,3-difluoro-cyclobutyl)amino]-2-oxo-acetyl]-1,3,5-trimethyl-pyrrole-2-carboxamide], for which the EC50 lay within 1 to 10 nM.

Turning to `C#CC1(NC(=O)C(=O)c2c(C)c(C(=O)Nc3ccnc(Br)c3F)n(C)c2C)COC1` [Compound 83, N-(2-bromo-3-fluoro-4-pyridyl)-4-[2-[(3-ethynyloxetan-3-yl)amino]-2-oxo-acetyl]-1,3,5-trimethyl-pyrrole-2-carboxamide], the EC50 lay in the range of 1 to 10 nM.

For `C#CC1(NC(=O)C(=O)c2c(C)c(C(=O)Nc3ccnc(Br)c3F)n(C)c2C)CC(F)(F)C1` [Compound 84, N-(2-bromo-3-fluoro-4-pyridyl)-4-[2-[(1-ethynyl-3,3-difluoro-cyclobutyl)amino]-2-oxo-acetyl]-1,3,5-trimethyl-pyrrole-2-carboxamide], the EC50 was in the range of 1 to 10 nM.

On to `Cc1c(C(=O)C(=O)NC(C)(C)c2nccs2)c(C)n(C)c1C(=O)Nc1ccc(F)c(C#N)c1` [Compound 85, N-(3-cyano-4-fluoro-phenyl)-1,3,5-trimethyl-4-[2-[(1-methyl-1-thiazol-2-yl-ethyl)amino]-2-oxo-acetyl]pyrrole-2-carboxamide], for which the EC50 is 1 to 10 nM.

With `C#CC1(NC(=O)C(=O)c2c(C)c(C(=O)Nc3ccc(F)c(F)c3)n(C)c2C)COC1` [Compound 86, N-(3,4-difluorophenyl)-4-[2-[(3-ethynyloxetan-3-yl)amino]-2-oxo-acetyl]-1,3,5-trimethyl-pyrrole-2-carboxamide], the EC50 lay within 1 to 10 nM.

In the case of `C#CC1(NC(=O)C(=O)c2c(C)c(C(=O)Nc3ccc(F)c(F)c3)n(C)c2C)CCCCC1` [Compound 87, N-(3,4-difluorophenyl)-4-[2-[(1-ethynylcyclohexyl)amino]-2-oxo-acetyl]-1,3,5-trimethyl-pyrrole-2-carboxamide], the EC50 is 1 to 10 nM.

With `C#CC(C)(CC)NC(=O)C(=O)c1c(C)c(C(=O)Nc2ccc(F)c(F)c2)n(C)c1C` (stereo not drawn) [Compound 88, N-(3,4-difluorophenyl)-4-[2-[(1-ethyl-1-methyl-prop-2-ynyl)amino]-2-oxo-acetyl]-1,3,5-trimethyl-pyrrole-2-carboxamide], the EC50 was in the range of 1 to 10 nM.

Consider `C#CC(CC)(CC)NC(=O)C(=O)c1c(C)c(C(=O)Nc2ccc(F)c(F)c2)n(C)c1C` [Compound 89, 4-[2-(1,1-diethylprop-2-ynylamino)-2-oxo-acetyl]-N-(3,4-difluorophenyl)-1,3,5-trimethyl-pyrrole-2-carboxamide], for which the half-maximal effective concentration (EC50) fell in the range of 1 to 10 nM.

Consider `C#CC(C)(C)NC(=O)C(=O)c1c(C)c(C(=O)Nc2ccc(F)c(F)c2)n(C)c1C` [Compound 90, N-(3,4-difluorophenyl)-4-[2-(1,1-dimethylprop-2-ynylamino)-2-oxo-acetyl]-1,3,5-trimethyl-pyrrole-2-carboxamide], for which the EC50 was in the range of 1 to 10 nM.

On to `Cc1c(C(=O)C(=O)NC(C)(C)c2ccccn2)c(C)n(C)c1C(=O)Nc1ccc(F)c(C#N)c1` [Compound 91, N-(3-cyano-4-fluoro-phenyl)-1,3,5-trimethyl-4-[2-[[1-methyl-1-(2-pyridyl)ethyl]amino]-2-oxo-acetyl]pyrrole-2-carboxamide], for which the EC50 is 1 to 10 nM.

Consider `Cc1c(C(=O)C(=O)NC(C)(C)c2cccnc2)c(C)n(C)c1C(=O)Nc1ccc(F)c(C#N)c1` [Compound 92, N-(3-cyano-4-fluoro-phenyl)-1,3,5-trimethyl-4-[2-[[1-methyl-1-(3-pyridyl)ethyl]amino]-2-oxo-acetyl]pyrrole-2-carboxamide], for which the EC50 is 1 to 10 nM.

Take `Cc1c(C(=O)C(=O)NC(C)(C)c2ccncc2)c(C)n(C)c1C(=O)Nc1ccc(F)c(C#N)c1` [Compound 93, N-(3-cyano-4-fluoro-phenyl)-1,3,5-trimethyl-4-[2-[[1-methyl-1-(4-pyridyl)ethyl]amino]-2-oxo-acetyl]pyrrole-2-carboxamide]: the EC50 was 1 to 10 nM.

`Cc1c(C(=O)C(=O)NC2(C#C[C@@H](C)O)COC2)c(C)n(C)c1C(=O)Nc1ccc(F)c(C#N)c1` [Compound 94a, N-(3-cyano-4-fluoro-phenyl)-1,3,5-trimethyl-4-[2-oxo-2-[[3-[(3R)-3-hydroxybut-1-ynyl]oxetan-3-yl]amino]acetyl]pyrrole-2-carboxamide]: the EC50 lay in the range of 10 to 100 nM.

For the compound `Cc1c(C(=O)C(=O)NC2(C#C[C@H](C)O)COC2)c(C)n(C)c1C(=O)Nc1ccc(F)c(C#N)c1` [Compound 94b, N-(3-cyano-4-fluoro-phenyl)-1,3,5-trimethyl-4-[2-oxo-2-[[3-[(3S)-3-hydroxybut-1-ynyl]oxetan-3-yl]amino]acetyl]pyrrole-2-carboxamide], the EC50 is 1 to 10 nM.
